From US8580959B2, “Azolotriazinone melanin concentrating hormone receptor-1 antagonists” (Bristol-Myers Squibb Company, priority 2008, dated 2013)
Counter-ions that a name gives are not always drawn.

Experiments:
[1] = biological target: T1, mutated (E4Q, A5T) hMCHR1 receptor (Homo sapiens, UniProt Q99705, A5T/E4Q); experiment: Radioligand binding assay for assessment of MCHR1 activity (human); conditions: membranes of HEK-293 cells, [Phe13,[125I]Tyr19]-MCH competition
T1 construct: expressed in transfected cells; host or cells: HEK-293 (stably transfected), membranes
T1 sequence (Q99705 whole entry E4Q/A5T): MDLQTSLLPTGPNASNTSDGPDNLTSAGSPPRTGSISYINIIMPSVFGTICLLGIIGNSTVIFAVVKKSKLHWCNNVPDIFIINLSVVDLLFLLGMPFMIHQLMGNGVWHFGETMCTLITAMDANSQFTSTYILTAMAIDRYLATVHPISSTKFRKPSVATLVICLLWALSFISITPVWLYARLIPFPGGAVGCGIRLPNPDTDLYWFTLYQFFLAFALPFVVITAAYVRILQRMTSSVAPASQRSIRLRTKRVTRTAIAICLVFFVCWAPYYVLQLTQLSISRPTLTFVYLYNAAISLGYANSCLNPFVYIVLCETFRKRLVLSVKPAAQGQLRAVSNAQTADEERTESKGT
Procedure: Radioligand Binding Assay for Assessment of MCHR1 Activity
Membranes from stably transfected HEK-293 cells expressing a mutated (E4Q, A5T) hMCHR1 receptor were prepared by dounce homogenization and differential centrifugation. Binding experiments were carried out with 0.5-1.0 ug of membrane protein incubated in a total of 0.2 ml in 25 mM HEPES (pH 7.4) with 10 mM MgCl2, 2 mM EGTA, and 0.1% BSA (Binding Buffer) for 90 min. […] Filters were dried, 0.05 ml microscint 20 was added to each well and radioactivity was subsequently quantified by scintillation counting on a TOPCOUNT® microplate scintillation counter (Packard). Inhibitory constants were determined by nonlinear least squares analysis using a four parameter logistic equation.

Male SPRAGUE DAWLEY rats = experiment: Assessment of in vivo MCHR activity (body weight, rats with choice of chow and high fat high sugar diet); design: species or system rat; conditions: dose 30 mg/kg p.o. daily day 0 through day 4, rats; parent dosed as its prodrug example (22, 63, 50)
Procedure: Assessment of In Vivo MCHR Activity
Male SPRAGUE DAWLEY® (CD, Charles River Breeding Laboratory) rats weighing approximately 240 grams were place in individual plastic cages with ALPHADRI® bedding. The room was maintained at 72° F. and 50% humidity, and a 12/12 light dark cycle with lights out at 1600 hours. The rats were conditioned for 5 days prior to the start of the study to having a choice of foods. A normal chow (HARLAN TEKLAD®, 2018) that contains 18% protein, 5% fat and 73% carbohydrate and a high fat high sugar diet (Research Diets (D2327)) that contains 20% protein, 40% fat and 40% carbohydrate where the carbohydrate is entirely sucrose and the fat is soybean and coconut oil. […] Body weight and consumption of both kinds of food as well as water intake were measured daily. Water was available ad lib throughout the study. Food consumption is presented as daily caloric consumption which is the sum of grams of chow multiplied by the Kcal per gram (3.5) plus grams of high fat high sugar multiplied by Kcal per gram (4.59).
Baseline body weight was measured prior to drug treatment on day 0 of the study. Baseline food consumption was the average of the 3 days prior to the first drug treatment. Drug was administered daily p.o. at 2.0 ml/kg at 1500 hours beginning on day 0 and continuing daily through day 4 as a suspension in 0.5% methyl cellulose, 0.1% Tween 80 in water at 3.0, 10 and 30 mg/kg p.o. All data were evaluated using ANOVA and Fishers PLSD statistics.

MCHR1 Rat = MCHR1 Rat (Rattus norvegicus, UniProt P97639); experiment: MCHR1 rat binding (radioligand binding assay)
Chain of MCHR1 Rat (P97639 whole entry): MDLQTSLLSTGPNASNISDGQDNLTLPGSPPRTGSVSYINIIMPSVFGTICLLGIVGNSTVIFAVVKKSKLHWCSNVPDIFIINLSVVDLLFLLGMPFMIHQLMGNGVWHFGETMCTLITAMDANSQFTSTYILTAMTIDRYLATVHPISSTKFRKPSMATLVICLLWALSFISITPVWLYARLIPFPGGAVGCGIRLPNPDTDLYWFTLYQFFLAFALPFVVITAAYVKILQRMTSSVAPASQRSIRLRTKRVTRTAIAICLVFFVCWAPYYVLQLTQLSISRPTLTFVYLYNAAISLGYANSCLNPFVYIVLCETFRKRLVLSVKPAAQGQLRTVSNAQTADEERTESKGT

Ki [1] | Ki (MCHR1 Rat) | Compound | % Weight Reduction versus Vehicle (Male SPRAGUE DAWLEY rats)
9.4 nM | – | COc1cc(-n2cnn3cc(-c4ccc(Cl)cc4)cc3c2=O)ccc1N1C[C@H](OC(=O)[C@@H](N)C(C)C)[C@H](OC(=O)[C@@H](N)C(C)C)C1 [Example 56, (2S,2′S)-((3S,4R)-1-(4-(6-(4-Chlorophenyl)-4-oxopyrrolo[1,2-f][1,2,4]triazin-3(4H)-yl)-2-methoxyphenyl)pyrrolidine-3,4-diyl)bis(2-amino-3-methylbutanoate), 2TFA] | –
126 nM | – | CCS(=O)(=O)C[C@H](COc1ccc(-n2cnn3cc(-c4ncc(Cl)cn4)cc3c2=O)cc1OC)OC(=O)CN [Example 61, (S)-1-(4-(6-(5-Chloropyrimidin-2-yl)-4-oxopyrrolo[1,2-f][1,2,4]triazin-3(4H)-yl)-2-methoxyphenoxy)-3-(ethylsulfonyl)propan-2-yl 2-aminoacetate, TFA] | –
2.2 nM | 0.8 nM | COc1cc(-n2cnn3nc(-c4ccc(Cl)cc4)cc3c2=O)ccc1OCCN1CCC(O)C1 (centres unmarked) [Example 6, 6-(4-Chlorophenyl)-3-(4-(2-(3-hydroxypyrrolidin-1-yl)ethoxy)-3-methoxyphenyl)pyrazolo[1,5-f][1,2,4]triazin-4(3H)-one] | –
4.42 nM | 2.76 nM | COc1cc(-n2cnn3cc(-c4ccc(Cl)cc4)cc3c2=O)ccc1OCC(C)(C)O [Example 1, 6-(4-Chlorophenyl)-3-(4-(2-hydroxy-2-methylpropoxy)-3-methoxyphenyl)pyrrolo[1,2-f][1,2,4]triazin-4(3H)-one] | –
0.52 nM | 0.7 nM | COc1cc(-n2cnn3cc(-c4ccc(Cl)cc4)cc3c2=O)ccc1OCCN1CCCC1 [Example 4, 6-(4-Chlorophenyl)-3-(3-methoxy-4-(2-(pyrrolidin-1-yl)ethoxy)phenyl)pyrrolo[1,2-f][1,2,4]triazin-4(3H)-one] | –
11.5 nM | – | O=c1c2cc(-c3ccc(Cl)cc3)cn2ncn1-c1ccc(N2CCC(O)CC2)nc1 [Example 18, 6-(4-Chlorophenyl)-3-(6-(4-hydroxypiperidin-1-yl)pyridin-3-yl)pyrrolo[1,2-f][1,2,4]triazin-4(3H)-one] | –

Second part, the compound before the results:

Compound | Ki [1] | Ki (MCHR1 Rat) | % Weight Reduction versus Vehicle (Male SPRAGUE DAWLEY rats)
COc1cc(-n2cnn3cc(-c4ccc(Cl)cn4)cc3c2=O)ccc1OCC(C)(C)O [Example 33, 6-(5-Chloropyridin-2-yl)-3-[4-(2-hydroxy-2-methyl-propoxy)-3-methoxy-phenyl]-3H-pyrrolo[2,1-f][1,2,4]triazin-4-one] | – | – | 11.2%
COc1ccc(-n2cnn3cc(-c4ccc(Cl)cc4)nc3c2=O)cc1OC [Example 38, 6-(4-Chlorophenyl)-3-(3,4-dimethoxy-phenyl)-3H-imidazo[2,1-f][1,2,4]triazin-4-one] | 76.1 nM | – | –
O=c1c2cc(-c3ccc(Cl)cn3)cn2ncn1-c1ccc(N2CC[C@@H](O)C2)nc1 [Example 31, 6-(5-Chloropyridin-2-yl)-3-[6-(3-hydroxy-pyrrolidin-1-yl)-pyridin-3-yl]-3H-pyrrolo[2,1-f][1,2,4]triazin-4-one] | 124 nM | – | –
COc1cc(-n2cnn3cc(-c4ccc(Cl)cn4)cc3c2=O)ccc1OCC1(O)CC(F)(F)C1 [Example 46, 6-(5-Chloropyridin-2-yl)-3-(4-((3,3-difluoro-1-hydroxycyclobutyl)methoxy)-3-methoxyphenyl)pyrrolo[1,2-f][1,2,4]triazin-4(3H)-one-4(3H)-one] | – | – | 2.6%
COc1ccc(-n2cnn3cc(-c4ccc(Cl)cc4)cc3c2=O)cc1OC [Example 2, 6-(4-Chlorophenyl)-3-(3,4-dimethoxyphenyl)pyrrolo[1,2-f][1,2,4]triazin-4(3H)-one] | 21.4 nM | 8.29 nM | –
6-(4-Chlorophenyl)-3-(4-(2-hydroxy-2-methylpropoxy)-3-methoxyphenyl)pyrrolo[1,2-f][1,2,4]triazin-4(3H)-one [Example 1] | – | – | 6.9%
COc1cc(-n2cnn3cc(-c4ccc(Cl)cc4)cc3c2=O)ccc1OCC(C)N1CCCC1 (centres unmarked) [Example 13, 6-(4-Chlorophenyl)-3-[3-methoxy-4-(2-pyrrolidin-1-yl-propoxy)-phenyl]-3H-pyrrolo[2,1-f] [1,2,4]triazin-4-one] | 0.17 nM | – | –
COc1cc(-n2cnn3cc(-c4ccc(Cl)cc4)cc3c2=O)ccc1OCC(O)C1CC1 (centres unmarked) [Example 3, 6-(4-Chlorophenyl)-3-(4-(2-cyclopropyl-2-hydroxyethoxy)-3-methoxyphenyl)pyrrolo[1,2-f][1,2,4]triazin-4(3H)-one] | 4.49 nM | 2.79 nM | –
COc1cc(-n2cnn3cc(-c4ncc(Cl)cn4)cc3c2=O)ccc1OCC1(O)CC(F)(F)C1 [Example 57, 6-(5-Chloropyrimidin-2-yl)-3-(4-((3,3-difluoro-1-hydroxycyclobutyl)methoxy)-3-methoxyphenyl)pyrrolo[1,2-f][1,2,4]triazin-4(3H)-one] | 9 nM | – | –
